Test: xn = mol fraction of the nth substance listed
Conditions: 101 kPa

CCCCCCCCn1cc[n+](C)c1.[Cl-] + CCO
viscosity [mPa·s]
Conditions | x2 = 0.0449 | x2 = 0.1305 | x2 = 0.6858 | x2 = 0.8809 | x2 = 0.9794
298.15 K | 12600 | 5400 | – | – | –
313.15 K | – | – | 14.6 | – | 1.061
328.15 K | 830 | – | 9.12 | 1.997 | 0.819

O=P([O-])([O-])O.[Na+].[Na+] + CCCCCCCCCCCC[N+](C)(C)C.[Br-] + O
298.15 K
Conditions | electrical conductivity [S/m]
x2 = 0, x1 = 0.0001802 | 0.1834
x2 = 0, x1 = 0.001799 | 1.203
x2 = 3.43e-06, x1 = 0.0001802 | 0.1849
x2 = 4.01e-06, x1 = 0.001799 | 1.201
x2 = 7.22e-06, x1 = 0.0001802 | 0.1863
x2 = 1.095e-05, x1 = 0.001799 | 1.202
x2 = 1.245e-05, x1 = 0.0001802 | 0.1888
x2 = 1.967e-05, x1 = 0.0001802 | 0.1919
x2 = 2.007e-05, x1 = 0.001799 | 1.204
x2 = 2.851e-05, x1 = 0.0001802 | 0.1958
x2 = 2.882e-05, x1 = 0.001799 | 1.205
x2 = 3.717e-05, x1 = 0.0001802 | 0.1997
x2 = 4.214e-05, x1 = 0.001799 | 1.207
x2 = 4.619e-05, x1 = 0.0001802 | 0.2038
x2 = 5.521e-05, x1 = 0.0001802 | 0.2079
x2 = 5.582e-05, x1 = 0.001799 | 1.209
x2 = 6.423e-05, x1 = 0.0001802 | 0.212
x2 = 6.895e-05, x1 = 0.001799 | 1.212
x2 = 7.307e-05, x1 = 0.0001801 | 0.2161
x2 = 8.173e-05, x1 = 0.0001801 | 0.2201
x2 = 8.209e-05, x1 = 0.001799 | 1.215
x2 = 9.056e-05, x1 = 0.0001801 | 0.224
x2 = 9.522e-05, x1 = 0.001799 | 1.218
x2 = 9.922e-05, x1 = 0.0001801 | 0.2279
x2 = 0.0001077, x1 = 0.0001801 | 0.2317
x2 = 0.0001087, x1 = 0.001799 | 1.221
x2 = 0.0001165, x1 = 0.0001801 | 0.2356
x2 = 0.0001218, x1 = 0.001799 | 1.224
x2 = 0.000125, x1 = 0.0001801 | 0.2393
x2 = 0.0001335, x1 = 0.0001801 | 0.243
x2 = 0.0001366, x1 = 0.001799 | 1.228
x2 = 0.0001441, x1 = 0.0001801 | 0.2473
x2 = 0.0001519, x1 = 0.001798 | 1.232
x2 = 0.0001524, x1 = 0.0001801 | 0.2509
x2 = 0.0001609, x1 = 0.0001801 | 0.2547
x2 = 0.0001667, x1 = 0.001798 | 1.236
x2 = 0.0001694, x1 = 0.0001801 | 0.2586
x2 = 0.0001777, x1 = 0.0001801 | 0.2624
x2 = 0.0001813, x1 = 0.001798 | 1.24
x2 = 0.0001858, x1 = 0.0001801 | 0.2662
x2 = 0.0001937, x1 = 0.0001801 | 0.2697
x2 = 0.0001963, x1 = 0.001798 | 1.243
x2 = 0.0002019, x1 = 0.0001801 | 0.2733
x2 = 0.0002103, x1 = 0.0001801 | 0.2774
x2 = 0.0002105, x1 = 0.001798 | 1.246
x2 = 0.0002184, x1 = 0.0001801 | 0.2809
x2 = 0.0002245, x1 = 0.001798 | 1.249
x2 = 0.000226, x1 = 0.0001801 | 0.2841
x2 = 0.0002339, x1 = 0.0001801 | 0.2867
x2 = 0.0002387, x1 = 0.001798 | 1.252
x2 = 0.0002421, x1 = 0.0001801 | 0.2888
x2 = 0.0002516, x1 = 0.0001801 | 0.2909
x2 = 0.0002524, x1 = 0.001798 | 1.254
x2 = 0.0002625, x1 = 0.0001801 | 0.2928
x2 = 0.0002663, x1 = 0.001798 | 1.257
x2 = 0.0002743, x1 = 0.0001801 | 0.2947
x2 = 0.0002801, x1 = 0.001798 | 1.259
x2 = 0.0002882, x1 = 0.0001801 | 0.2967
x2 = 0.0002936, x1 = 0.001798 | 1.262
x2 = 0.0003037, x1 = 0.0001801 | 0.2989
x2 = 0.0003071, x1 = 0.001798 | 1.265
x2 = 0.0003189, x1 = 0.0001801 | 0.3011
x2 = 0.0003202, x1 = 0.001798 | 1.268
x2 = 0.0003294, x1 = 0.001798 | 1.27
x2 = 0.0003301, x1 = 0.0001801 | 0.3025
